Data from patent publication US20230355749A1, “Immunomodulatory Compounds And Use Thereof For The Treatment And/Or Prevention Of Infectious Diseases” (AC […], priority 2020, published 2023).
Counter-ions that a name gives are not always drawn.

Experiments:
[1] = system: Bone-marrow derived dendritic cells (BMDC); assay: Cytokine secretion by ELISA in BMDC stimulated with LPS and OVA257-264 peptide; assay type: cell-based, C57BL/6 mice; details: LPS 100 ng/ml + OVA257-264 peptide 10 μM, after 24 hours
Method: (§1) Cells were analysed for expression of co-stimulatory markers and MHC complexes at the cell surface by FACS, gated on the live CD11c+ population. Panel A) Median fluorescence intensity ([…]) of CD40, CD80 and CD86 expression. Panel B) Overall expression of MHC-II, given by the expression of I-Ab. Panel C) Relative surface expression of MHC-I (H2-Kb): OVA257-264 peptide complexes over the total surface expression of H2-Kb. Panel D) Quantification of cytokine secretion by ELISA. Data is expressed as the mean+/−standard error of the mean (SEM). Statistical significance was determined by a student's t-test with *p≤0.05.
(§2) LPS (100 ng/ml) was used in this instance as a model Toll-like Receptor ligand for a pathogen and a surrogate for the licensed TLR-specific adjuvant-MPLA.

[2] = system: immature DC (CD11c+MHC-II int); assay: Endocytosis (uptake) of OVA-AF647 protein by immature DC; assay type: cell-based, C57BL/6 mice; details: pretreated 3 hours (ACB1801s 20 μM), OVA-AF647 2 μg/ml; for percentage of OVA-AF647+ cells: 3 mice, vehicle 71.00+/−0.058; for Median Fluorescence Intensity of OVA-AF647 within the positive population (amount of protein taken up): vehicle 5533.33+/−60.26, P≤0.0001
[3] = system: Bone-marrow derived dendritic cells (BMDC); assay: Co-stimulatory marker and MHC surface expression by FACS in BMDC stimulated with LPS and OVA257-264 peptide; assay type: cell-based, C57BL/6 mice; details: pre-treated 1 hour, then LPS 100 ng/ml + OVA257-264 peptide 10 μM for 24 hours; live CD11c+ population
Method: as §1, §2

LPS-matured BMDC = details: DC matured with 100 ng/ml LPS 36 h; pretreated 1 hour, Eα55-68 pulse 3 hours, analyzed after 24 hours; live CD11c+MHC-II(I-Ab) high; vehicle 1553.33±54.93, p=0.03
Description: Specifically, these complexes were recognized using fluorochrome-labelled monoclonal antibodies of Y-Ae for I-Ab: Eα55-68 complexes and 25-D1.16 for H2-Kb: OVA257-264 complexes. In all experiments, BMDC were differentiated in vitro from bone marrow precursor cells of C57BL/6 mice using GM-CSF and IL-4 at 250 and 5 UI/ml, respectively.

| Structure (SMILES) | levels of pro-inflammatory cytokines (IL-6, and TNF) [1] | percentage of OVA-AF647+ cells [2] | Median Fluorescence Intensity of OVA-AF647 within the positive population (amount of protein taken up) [2] | expression of CD80/CD86 co-stimulatory markers [3] | overall expression of surface MHC-II (I-Ab) [3] | Median Fluorescence Intensity (MFI) of I-Ab: Eα55-68 specific complexes (LPS-matured BMDC) |
| --- | --- | --- | --- | --- | --- | --- |
| COc1ccc2c(c1)[nH]c1c(C)nccc12.Cl [ACB1801s, harmine HCl] | reduced | 72.37+/−0.94 | 6725.67+/−41.450 | increased | increased | 1742.33±15.62 |
| Cc1[nH]ccc2c1[nH]c1cc(=O)ccc12 [ACB1804s, harmol HCl] | – | 73.867+/−0.751 | 6628+/−98.475 | – | – | – |
